From ChEMBL document CHEMBL1833963, “Synthesis of new 3,20-bispolyaminosteroid squalamine analogues and evaluation of their antimicrobial activities” (2011)
≈ marks a conversion by molar mass, not a printed value. Calls of active or inactive are those of the source. The rule behind the calls is not given here.

Legend:
Staphylococcus aureus [1] = test: Antibacterial activity against Staphylococcus aureus after 24 hrs by microbroth dilution method; assay type: functional
Staphylococcus aureus [2] = test: Antibacterial activity against oxacillin-sensitive Staphylococcus aureus after 24 hrs by microbroth dilution method; assay type: functional
Escherichia coli [3] = test: Antibacterial activity against Escherichia coli after 24 hrs by microbroth dilution method; assay type: functional
Pseudomonas aeruginosa [4] = test: Antibacterial activity against Pseudomonas aeruginosa after 24 hrs by microbroth dilution method; assay type: functional
Pseudomonas aeruginosa [5] = test: Antibacterial activity against colistin-sensitive Pseudomonas aeruginosa after 24 hrs by microbroth dilution method; assay type: functional
Inquilinus limosus = test: Antibacterial activity against colistin-resistant Inquilinus limosus after 24 hrs by microbroth dilution method; assay type: functional
Burkholderia cepacia = test: Antibacterial activity against Colistin resistant Burkholderia cepacia after 24 hrs by microbroth dilution method; assay type: functional
Escherichia coli [6] = test: Antibacterial activity against Escherichia coli ATCC 25922 after 24 hrs by microbroth dilution method in absence of Mg2+; assay type: functional
Staphylococcus aureus [7] = test: Antibacterial activity against Staphylococcus aureus ATCC 25923 after 24 hrs by microbroth dilution method in absence of Mg2+; assay type: functional
Escherichia coli [8] = test: Antibacterial activity against Escherichia coli ATCC 25922 after 24 hrs by microbroth dilution method in presence of Mg2+; assay type: functional
Staphylococcus aureus [9] = test: Antibacterial activity against Staphylococcus aureus ATCC 25923 after 24 hrs by microbroth dilution method in presence of Mg2+; assay type: functional
Staphylococcus aureus [10] = test: Bactericidal activity against Staphylococcus aureus DSM 799 assessed as log decrease in bacterial count at MIC after 2 hrs by time-kill assay; assay type: functional
Escherichia coli [11] = test: Ratio of MIC for Escherichia coli ATCC 25922 in presence of Mg2+ to MIC for Escherichia coli ATCC 25922 in absence of Mg2+; assay type: functional
Escherichia coli [12] = test: Antibacterial activity against Escherichia coli assessed as induction of ATP efflux at 4 times MIC after 5 mins by luminometry analysis; assay type: functional
Staphylococcus aureus [13] = test: Antibacterial activity against Staphylococcus aureus assessed as induction of ATP efflux at 4 times MIC after 5 mins by luminometry; assay type: functional
Staphylococcus aureus [14] = test: Antibacterial activity against oxacillin-resistant Staphylococcus aureus after 24 hrs by microbroth dilution method; assay type: functional
Staphylococcus aureus [15] = test: Bactericidal activity against Staphylococcus aureus DSM 799 assessed as log decrease in bacterial count at MIC after 1 hr by time-kill assay; assay type: functional
Pseudomonas aeruginosa [16] = test: Bactericidal activity against Pseudomonas aeruginosa DSM 939 assessed as complete killing at MIC after 2 hrs by time-kill assay; assay type: functional, organism-based
Staphylococcus aureus [17] = test: Antibacterial activity against Staphylococcus aureus assessed as induction of bacterial membrane depolarization at MIC measured up to 21 mins by fluorescence assay relative to squalamine; assay type: functional
Escherichia coli [18] = test: Antibacterial activity against Escherichia coli assessed as induction of bacterial membrane depolarization at MIC measured up to 21 mins by fluorescence assay relative to squalamine; assay type: functional
Escherichia coli [19] = test: Antibacterial activity against Escherichia coli assessed as induction of bacterial membrane depolarization at MIC measured up to 21 mins by fluorescence assay; assay type: functional, organism-based
Staphylococcus aureus [20] = test: Antibacterial activity against Staphylococcus aureus assessed as induction of bacterial membrane depolarization at MIC measured up to 21 mins by fluorescence assay; assay type: functional, organism-based
Staphylococcus aureus [21] = test: Antibacterial activity against Staphylococcus aureus assessed as induction of bacterial membrane depolarization at MIC after 3 mins by fluorescence assay; assay type: functional

Row | Compound | MIC (Staphylococcus aureus [1]) [mg/L] | MIC (Staphylococcus aureus [2]) [mg/L] | MIC (Escherichia coli [3]) [mg/L] | MIC (Pseudomonas aeruginosa [4]) [mg/L] | MIC (Pseudomonas aeruginosa [5]) [mg/L] | MIC (Inquilinus limosus) [mg/L] | MIC (Burkholderia cepacia) [mg/L] | MIC (Staphylococcus aureus [14]) [mg/L] | further results
1 | NC[C@H]1O[C@H](O[C@H]2[C@H](O)[C@@H](O[C@H]3O[C@H](CO)[C@@H](O)[C@H](N)[C@H]3O)[C@H](N)C[C@@H]2N)[C@H](N)C[C@@H]1O [TOBRAMYCIN] | 1.25 (≈ 2.67 µM) | 1.25 (≈ 2.67 µM) | 2.5 (≈ 5.35 µM) | 5 (≈ 10.7 µM) | 5 (≈ 10.7 µM) | > 40 | > 40 | – | MIC (Escherichia coli [6]; ATCC 25922, 24 h): 2 mg/L (≈ 4.28 µM); MIC (Staphylococcus aureus [7]; ATCC 25923, 24 h): 1 mg/L (≈ 2.14 µM); MIC (Escherichia coli [8]; ATCC 25922, 24 h): 1 mg/L; MIC (Staphylococcus aureus [9]; ATCC 25923, 24 h): 2 mg/L; FC (Staphylococcus aureus [10]): 5
2 | COLISTIMETHATE SODIUM | – | – | 2.5 | 5 | 5 | > 100 | > 40 | – | MIC (Escherichia coli [6]): 0.5 mg/L; MIC (Staphylococcus aureus [7]): > 128 mg/L; MIC (Escherichia coli [8]): 16 mg/L; MIC (Staphylococcus aureus [9]): > 128 mg/L; Ratio (Escherichia coli [11]): 4; Activity (Escherichia coli [12]): 4%; Activity (Staphylococcus aureus [13]): inactive
3 | C[C@@H](NCCCCCCCCN)[C@H]1CC[C@H]2[C@@H]3CCC4=C[C@@H](NCCCCCCCCN)CC[C@]4(C)[C@H]3CC[C@]12C | 2.5 (≈ 4.38 µM) | 2.5 (≈ 4.38 µM) | 5 (≈ 8.76 µM) | 2.5 (≈ 4.38 µM) | 2.5 (≈ 4.38 µM) | 10 (≈ 17.5 µM) | > 40 | 5 (≈ 8.76 µM) | MIC (Escherichia coli [6]; ATCC 25922, 24 h): 2.5 mg/L (≈ 4.38 µM); MIC (Staphylococcus aureus [7]; ATCC 25923, 24 h): 2.5 mg/L (≈ 4.38 µM); MIC (Escherichia coli [8]; ATCC 25922, 24 h): 10 mg/L; MIC (Staphylococcus aureus [9]; ATCC 25923, 24 h): 5 mg/L; Ratio (Escherichia coli [11]): 4; FC (Staphylococcus aureus [15]): 5; Activity (Pseudomonas aeruginosa [16]): Active; fold change (FC) (Staphylococcus aureus [17]): 4; Activity (Escherichia coli [12]): <35%; fold change (FC) (Escherichia coli [18]): 4
4 | C[C@@H](NCCCCN)[C@H]1CC[C@H]2[C@@H]3CCC4=C[C@@H](NCCCCN)CC[C@]4(C)[C@H]3CC[C@]12C | 5 (≈ 10.9 µM) | 10 (≈ 21.8 µM) | 10 (≈ 21.8 µM) | 20 (≈ 43.6 µM) | 20 (≈ 43.6 µM) | 40 (≈ 87.2 µM) | > 40 | 6 (≈ 13.1 µM) | –
5 | C[C@@H](NCCCCCCCCCCCCN)[C@H]1CC[C@H]2[C@@H]3CCC4=C[C@@H](NCCCCCCCCCCCCN)CC[C@]4(C)[C@H]3CC[C@]12C | 10 (≈ 14.6 µM) | 5 (≈ 7.32 µM) | 20 (≈ 29.3 µM) | 40 (≈ 58.5 µM) | 40 (≈ 58.5 µM) | 20 (≈ 29.3 µM) | > 40 | 10 (≈ 14.6 µM) | –
6 | C[C@@H](NCCN)[C@H]1CC[C@H]2[C@@H]3CCC4=C[C@@H](NCCN)CC[C@]4(C)[C@H]3CC[C@]12C | 20 (≈ 49.7 µM) | 20 (≈ 49.7 µM) | 20 (≈ 49.7 µM) | 20 (≈ 49.7 µM) | 20 (≈ 49.7 µM) | > 40 | > 40 | 10 (≈ 24.8 µM) | –
7 | C[C@@H](NCCCCCCN)[C@H]1CC[C@H]2[C@@H]3CCC4=C[C@@H](NCCCCCCN)CC[C@]4(C)[C@H]3CC[C@]12C | 2.5 (≈ 4.86 µM) | 5 (≈ 9.71 µM) | 5 (≈ 9.71 µM) | 10 (≈ 19.4 µM) | 20 (≈ 38.8 µM) | 20 (≈ 38.8 µM) | > 40 | 5 (≈ 9.71 µM) | –
8 | C[C@@H](NCCCCCN)[C@H]1CC[C@H]2[C@@H]3CCC4=C[C@@H](NCCCCCN)CC[C@]4(C)[C@H]3CC[C@]12C | 5 (≈ 10.3 µM) | 5 (≈ 10.3 µM) | 10 (≈ 20.5 µM) | 10 (≈ 20.5 µM) | 20 (≈ 41.1 µM) | 40 (≈ 82.2 µM) | > 40 | 10 (≈ 20.5 µM) | –
9 | C[C@@H](NCCCN)[C@H]1CC[C@H]2[C@@H]3CCC4=C[C@@H](NCCCN)CC[C@]4(C)[C@H]3CC[C@]12C | 10 (≈ 23.2 µM) | 10 (≈ 23.2 µM) | 10 (≈ 23.2 µM) | 10 (≈ 23.2 µM) | 20 (≈ 46.4 µM) | 20 (≈ 46.4 µM) | > 40 | 5 (≈ 11.6 µM) | –
10 | CC(C)[C@@H](CC[C@@H](C)[C@H]1CC[C@H]2[C@@H]3[C@H](O)C[C@H]4C[C@@H](NCCCNCCCCN)CC[C@]4(C)[C@H]3CC[C@]12C)OS(=O)(=O)O [SQUALAMINE] | 1.25 (≈ 1.99 µM) | 0.3 (≈ 0.478 µM) | 5 (≈ 7.96 µM) | 2.5 (≈ 3.98 µM) | 5 (≈ 7.96 µM) | 5 (≈ 7.96 µM) | > 40 | 1.25 (≈ 1.99 µM) | MIC (Escherichia coli [6]; ATCC 25922, 24 h): 2.5 mg/L (≈ 3.98 µM); MIC (Staphylococcus aureus [7]; ATCC 25923, 24 h): 1.25 mg/L (≈ 1.99 µM); MIC (Escherichia coli [8]; ATCC 25922, 24 h): 32 mg/L; MIC (Staphylococcus aureus [9]; ATCC 25923, 24 h): 1.25 mg/L; Ratio (Escherichia coli [11]): 4; Activity (Escherichia coli [12]): <35%; Activity (Staphylococcus aureus [13]): 100%; Activity (Escherichia coli [19]): inactive; Activity (Staphylococcus aureus [20]): Active; Activity (Staphylococcus aureus [21]): 80%
11 | C[C@@H](NCCCCCCCN)[C@H]1CC[C@H]2[C@@H]3CCC4=C[C@@H](NCCCCCCCN)CC[C@]4(C)[C@H]3CC[C@]12C | 2.5 (≈ 4.6 µM) | 2.5 (≈ 4.6 µM) | 5 (≈ 9.21 µM) | 10 (≈ 18.4 µM) | 10 (≈ 18.4 µM) | 20 (≈ 36.8 µM) | > 40 | 5 (≈ 9.21 µM) | –
12 | C[C@@H](N)[C@H]1CC[C@H]2[C@@H]3CCC4=C[C@@H](N)CC[C@]4(C)[C@H]3CC[C@]12C | 40 (≈ 126 µM) | > 40 | > 40 | > 40 | > 40 | > 40 | > 40 | 40 (≈ 126 µM) | –
13 | C[C@@H](NCCCCCCCCCCN)[C@H]1CC[C@H]2[C@@H]3CCC4=C[C@@H](NCCCCCCCCCCN)CC[C@]4(C)[C@H]3CC[C@]12C | 10 (≈ 15.9 µM) | 5 (≈ 7.97 µM) | 20 (≈ 31.9 µM) | 40 (≈ 63.8 µM) | 40 (≈ 63.8 µM) | 20 (≈ 31.9 µM) | > 40 | 5 (≈ 7.97 µM) | –
14 | CN[C@@H]1C=C2CC[C@H]3[C@@H]4CC[C@H]([C@@H](C)NC)[C@@]4(C)CC[C@@H]3[C@@]2(C)CC1 | 40 (≈ 116 µM) | 20 (≈ 58 µM) | > 40 | > 40 | > 40 | > 40 | > 40 | 20 (≈ 58 µM) | –
15 | C[C@@H](NCCCCCCCCCN)[C@H]1CC[C@H]2[C@@H]3CCC4=C[C@@H](NCCCCCCCCCN)CC[C@]4(C)[C@H]3CC[C@]12C | 5 (≈ 8.35 µM) | 5 (≈ 8.35 µM) | 20 (≈ 33.4 µM) | 40 (≈ 66.8 µM) | 40 (≈ 66.8 µM) | 20 (≈ 33.4 µM) | > 40 | 5 (≈ 8.35 µM) | –
